Assay results from ChEMBL document CHEMBL1201862, “PubChem BioAssay data set” (2004).
Activity calls are given as the source filed them.

Experiments:
[1] = test system: HEK293; assay: HEK cell cytotoxicity by LDH release, dose response, cytotoxicity control for IDE activator project, fluorescence, HEK cells (AID 588440); assay type: functional, cell-based; conditions: Homo sapiens;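 note: cytotoxicity by LDH release measuring loss of membrane integrity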
[2] = biological target: T1, Insulin-degrading enzyme (Homo sapiens, UniProt P14735); assay: activators of endogenous IDE in HEK cells, dose response, cell-based, fluorescence polarization (AID 588439); assay type: functional
T1 sequence (P14735 whole entry): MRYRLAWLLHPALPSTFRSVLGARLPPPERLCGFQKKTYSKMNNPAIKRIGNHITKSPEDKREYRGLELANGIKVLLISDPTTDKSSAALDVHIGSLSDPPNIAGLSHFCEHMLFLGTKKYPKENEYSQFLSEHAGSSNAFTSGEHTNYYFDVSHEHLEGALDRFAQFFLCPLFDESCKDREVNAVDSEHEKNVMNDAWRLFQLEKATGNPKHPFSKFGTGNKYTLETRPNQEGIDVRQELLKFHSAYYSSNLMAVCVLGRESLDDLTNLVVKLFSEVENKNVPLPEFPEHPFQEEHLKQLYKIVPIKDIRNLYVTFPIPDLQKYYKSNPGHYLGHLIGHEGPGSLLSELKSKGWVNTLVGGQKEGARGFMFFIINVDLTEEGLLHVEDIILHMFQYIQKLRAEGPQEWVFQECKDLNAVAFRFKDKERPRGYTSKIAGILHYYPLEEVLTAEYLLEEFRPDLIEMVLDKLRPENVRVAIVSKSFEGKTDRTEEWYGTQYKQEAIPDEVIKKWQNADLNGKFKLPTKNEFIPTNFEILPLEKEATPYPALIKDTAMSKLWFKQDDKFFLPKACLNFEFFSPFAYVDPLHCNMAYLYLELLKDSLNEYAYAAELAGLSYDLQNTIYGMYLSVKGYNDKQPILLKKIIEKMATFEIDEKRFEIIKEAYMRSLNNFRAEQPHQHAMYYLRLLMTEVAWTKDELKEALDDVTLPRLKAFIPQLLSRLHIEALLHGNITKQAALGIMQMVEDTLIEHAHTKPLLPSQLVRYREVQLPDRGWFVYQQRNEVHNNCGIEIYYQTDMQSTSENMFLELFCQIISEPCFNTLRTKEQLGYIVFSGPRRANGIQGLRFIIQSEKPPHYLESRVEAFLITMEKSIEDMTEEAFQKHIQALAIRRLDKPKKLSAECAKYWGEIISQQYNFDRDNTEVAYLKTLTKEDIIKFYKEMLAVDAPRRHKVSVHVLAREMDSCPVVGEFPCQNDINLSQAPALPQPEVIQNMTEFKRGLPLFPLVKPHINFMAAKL

[3] = test system: HEK293; assay: optical interference in Abeta FP readout, dose response, artefact control for IDE activator project, biochemical, fluorescence polarization (AID 588442); assay type: functional, cell-based; conditions: Homo sapiens
[4] = biological target: T1, Insulin-degrading enzyme; assay: activators of recombinant IDE enzyme, dose response, counter-screen for IDE activator project, biochemical, fluorescence polarization (AID 588681)
[5] = biological target: T2, High affinity choline transporter 1 (Homo sapiens, UniProt Q9GZV3); assay: CHT inhibitors, dose response, cell-based, 10-point CRC, membrane potential dye (AID 588401); assay type: functional;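 note: membrane potential dye fluorescence of choline-evoked depolarization via CHT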
T2 sequence (Q9GZV3 whole entry): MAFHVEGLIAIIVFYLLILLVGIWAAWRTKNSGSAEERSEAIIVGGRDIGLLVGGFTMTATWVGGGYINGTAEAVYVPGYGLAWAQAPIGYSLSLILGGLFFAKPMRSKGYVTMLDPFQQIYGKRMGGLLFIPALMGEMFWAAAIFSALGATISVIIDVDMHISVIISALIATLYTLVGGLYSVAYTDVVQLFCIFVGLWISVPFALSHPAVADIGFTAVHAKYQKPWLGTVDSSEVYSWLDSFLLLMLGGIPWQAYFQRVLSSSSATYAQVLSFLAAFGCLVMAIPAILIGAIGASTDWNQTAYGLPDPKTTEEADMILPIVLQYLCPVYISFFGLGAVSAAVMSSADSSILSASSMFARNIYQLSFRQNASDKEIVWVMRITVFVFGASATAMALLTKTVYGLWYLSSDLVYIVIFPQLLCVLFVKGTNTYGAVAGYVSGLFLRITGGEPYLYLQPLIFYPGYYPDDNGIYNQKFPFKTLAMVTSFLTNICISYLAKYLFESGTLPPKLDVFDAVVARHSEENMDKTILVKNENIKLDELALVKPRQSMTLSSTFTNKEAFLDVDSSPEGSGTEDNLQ

[6] = biological target: T2, High affinity choline transporter 1; assay: CHT inhibitors, dose response, cell-based, 5-point CRC, membrane potential dye (AID 504840); assay type: functional
[7] = biological target: T3, Endoribonuclease toxin MazF (Escherichia coli K-12, UniProt P0AE70); assay: fluorescent RNA oligo signal without MazF, dose response, counter-screen for MazEF activator project, biochemical, fluorescence, single-stranded RNase substrate (AID 588502); assay type: functional
T3 sequence (P0AE70 whole entry): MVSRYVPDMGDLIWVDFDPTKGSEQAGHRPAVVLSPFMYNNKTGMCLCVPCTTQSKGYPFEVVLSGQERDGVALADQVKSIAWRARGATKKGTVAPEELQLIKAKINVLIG

[8] = biological target: T3, Endoribonuclease toxin MazF; assay: MazF toxin RNase activators, dose response, biochemical, fluorescence, single-stranded RNA substrate, uHTS hits (AID 588481); assay type: functional
[9] = biological target: Benomyl/methotrexate resistance protein (Candida albicans, UniProt P28873); assay: CaMdr1 efflux pump inhibitor potency, dose response, singleplex, Cherry Pick1 hits (AID 588608); assay type: functional
Sequence of Benomyl/methotrexate resistance protein (P28873 whole entry): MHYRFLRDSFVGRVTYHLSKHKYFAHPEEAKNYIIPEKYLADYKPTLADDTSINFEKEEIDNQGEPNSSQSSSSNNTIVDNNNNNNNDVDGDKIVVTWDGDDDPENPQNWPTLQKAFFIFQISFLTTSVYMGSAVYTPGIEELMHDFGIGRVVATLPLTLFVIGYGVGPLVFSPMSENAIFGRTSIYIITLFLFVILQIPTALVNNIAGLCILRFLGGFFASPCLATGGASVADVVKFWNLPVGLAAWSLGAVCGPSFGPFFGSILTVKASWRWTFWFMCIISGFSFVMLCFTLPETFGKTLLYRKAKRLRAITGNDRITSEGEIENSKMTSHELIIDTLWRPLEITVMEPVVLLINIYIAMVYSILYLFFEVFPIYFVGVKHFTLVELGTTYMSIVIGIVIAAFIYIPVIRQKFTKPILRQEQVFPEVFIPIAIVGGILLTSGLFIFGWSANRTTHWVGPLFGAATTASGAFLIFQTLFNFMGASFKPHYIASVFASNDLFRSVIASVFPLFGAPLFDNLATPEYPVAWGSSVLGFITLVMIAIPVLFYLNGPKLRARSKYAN

With `CNC[C@@H]1Oc2ccc(NS(=O)(=O)c3ccc(OC)cc3)cc2CC(=O)N([C@H](C)CO)C[C@@H]1C` the IC50 [1] was > 89.2 µM (inactive), the EC50 [2] was > 54.7 µM (inactive) and the EC50 [3] was > 55.9 µM (inactive). The EC50 [4] was > 54.7 µM (inactive).
In the case of `CC(=O)OC1CC2(C)C(=O)CCC2C2CCc3cc(O)ccc3C12` (stereo unspecified), the IC50 [5] is reported as 3.36 µM (active) and the IC50 [6] is reported as 9.28 µM (active).
With `COc1ccc(/C=C2\SC(c3ccc(C)cc3)=NC2=O)cc1OC` the EC50 [7] was > 99 µM (inactive), the EC50 [8] was > 99 µM (inactive) and the EC50 [9] was 5.12 µM (active).
In the case of `O=C(C[n+]1cccc(Br)c1)c1ccccc1`, the IC50 [5] is reported as 2.84 µM (active) and the IC50 [6] is reported as 3.23 µM (active).
